According to patent publication US11964962B2, “Substituted pyridazinone compound and use thereof” (SHANDONG FIRST MEDICAL UNIVERSITY & SHANDONG ACADEMY OF …, priority 2020, dated 2024):
pEC50, pIC50: −log10 of the molar value.

How the values were obtained:
L929 mouse fibroblasts = experiment: Cytotoxicity in normal cell line L929 (CCK-8 proliferation assay); format: cell-based; settings: 48 h treatment, CCK-8, absorbance 450 nm, read-out: IC50 for proliferation of L929 cell lines
Method: Concentration of L929 mouse fibroblasts was adjusted to 4×10^5 cells/mL. The cells were seeded in a 96 well plate with […] per well. Wells not supplied with the cells (blank group) were provided. The cells were cultivated on the plate and were allowed to adhere overnight. Then, cell culture supernatants were collected, and 200 μL of test compound at various concentrations were added to the corresponding cell culture supernatants. Control and compound-treated cell culture supernatants were included in each experiment with triplicate wells for each experimental group, and were cultivated for a further 48 h. Then, the resulting cell culture supernatants were again collected, and fresh medium supplemented with 10% CCK-8 solution was added thereto. Incubation for an additional 3 h was carried out. Thereafter, the absorbance of the medium was measured at 450 nm wavelength, and the inhibitory rate of cell proliferation by test compound was calculated according to the equation below: R (%)=1−(Aexperiment−Ablank)/(Acontrol−Ablank)

THRα = molecular target: T1, THRα (Homo sapiens, UniProt P10827); experiment: THRα agonist activity, fluorescence ratio 665 nm/615 nm with EE-RxRα and biotin-GRIP; format: biochemical; settings: incubated overnight at 4° C.
T1 construct: GST
T1 sequence (P10827 1-410 isoform P10827-2): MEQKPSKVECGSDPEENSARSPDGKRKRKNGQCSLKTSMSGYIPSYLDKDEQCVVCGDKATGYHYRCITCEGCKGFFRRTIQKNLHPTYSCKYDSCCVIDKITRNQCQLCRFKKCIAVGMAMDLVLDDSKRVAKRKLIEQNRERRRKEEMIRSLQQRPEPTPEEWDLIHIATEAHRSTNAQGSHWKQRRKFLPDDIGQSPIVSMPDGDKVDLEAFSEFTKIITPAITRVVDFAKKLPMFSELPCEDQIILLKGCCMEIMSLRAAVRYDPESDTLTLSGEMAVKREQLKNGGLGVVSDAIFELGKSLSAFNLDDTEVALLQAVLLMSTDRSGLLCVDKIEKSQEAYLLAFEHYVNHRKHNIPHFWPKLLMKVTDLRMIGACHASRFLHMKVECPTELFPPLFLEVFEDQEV
T1 sequence (P19793 225-462 partner limits assumed): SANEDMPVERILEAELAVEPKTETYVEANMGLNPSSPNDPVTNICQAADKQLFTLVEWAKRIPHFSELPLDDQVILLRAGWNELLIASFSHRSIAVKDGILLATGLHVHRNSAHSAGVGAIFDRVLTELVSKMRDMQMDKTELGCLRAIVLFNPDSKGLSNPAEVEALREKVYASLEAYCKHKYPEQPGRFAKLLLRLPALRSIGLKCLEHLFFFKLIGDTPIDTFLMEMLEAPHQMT
T1 sequence (Q15596 679-703 partner limits assumed): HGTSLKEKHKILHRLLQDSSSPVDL
Method: (§1) Test compound was dissolved and serially diluted in dimethyl sulfoxide (DMSO) with a final compound concentration of 60 mM. […] Buffer 1 was employed again to prepare EE-RxRα at the same concentrations as those of THRα and THRβ, respectively. Buffer 1+5% DMSO was employed to prepare biotin-GRIP (THRα: […], THRβ: 100 nM). Buffer 2 (50 mM Tris, pH 7.4, 100 mM NaCl, and 0.2 mg/mL BSA) was employed to prepare a mixed solution of 2×Eu-anti-GST and 2×streptavidin-d2. 5 μL of the THRα (THRβ) solution+5 μL of EE-RxRα+2.5 μL of the DMSO solution of test compound+2.5 μL of biotin-GRIP+5 μL of the mixed solution of 2×Eu-anti-GST and 2×streptavidin-d2 was employed as the reaction system, and incubated overnight at 4° C.

THRβ = molecular target: T2, THRβ (Homo sapiens, UniProt P10828); experiment: THRβ agonist activity, fluorescence ratio 665 nm/615 nm with EE-RxRα and biotin-GRIP; format: biochemical; settings: incubated overnight at 4° C.
T2 construct: GST
T2 sequence (P10828 1-461): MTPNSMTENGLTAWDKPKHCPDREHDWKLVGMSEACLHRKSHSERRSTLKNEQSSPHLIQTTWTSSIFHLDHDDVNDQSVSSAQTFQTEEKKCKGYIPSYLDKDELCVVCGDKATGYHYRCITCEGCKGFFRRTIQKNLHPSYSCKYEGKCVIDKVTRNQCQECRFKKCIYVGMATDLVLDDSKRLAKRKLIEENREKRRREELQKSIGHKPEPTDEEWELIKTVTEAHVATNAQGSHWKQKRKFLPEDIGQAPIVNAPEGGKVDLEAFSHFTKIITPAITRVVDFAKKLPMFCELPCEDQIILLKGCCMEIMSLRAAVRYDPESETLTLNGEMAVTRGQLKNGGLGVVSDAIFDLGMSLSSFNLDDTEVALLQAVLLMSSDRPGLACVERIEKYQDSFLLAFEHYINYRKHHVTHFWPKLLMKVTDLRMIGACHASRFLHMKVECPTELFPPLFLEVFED
T2 sequence (P19793 225-462 partner limits assumed): T1 sequence (P19793 225-462 partner limits assumed)
T2 sequence (Q15596 679-703 partner limits assumed): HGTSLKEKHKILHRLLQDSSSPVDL
Method: as §1

SMILES	pEC50 (THRα)	pEC50 (THRβ)	pIC50 (L929 mouse fibroblasts)
CC(C)(C)c1cc(Oc2ccc(-n3nc(C#N)c(=O)[nH]c3=O)cc2F)n[nH]c1=O [Compound 2, 2-(4-((5-(tert-butyl)-6-oxo-1,6-dihydropyridazin-3-yl)oxy)-3-fluorophenyl)-3,5-dioxo-2,3,4,5-tetrahydro-1,2,4-triazine-6-carbonitrile]	5.27	7.68	< 4.30
CC(C)(C)c1cc(Oc2ccc(-n3nc(C#N)c(=O)[nH]c3=O)c(Cl)c2)n[nH]c1=O [Compound 4]	< 4.22	5.80	< 4.30
COc1cc(-n2nc(C#N)c(=O)[nH]c2=O)ccc1Oc1cc(C(C)(C)C)c(=O)[nH]n1 [Compound 5]	6.05	5.31	< 4.30
N#Cc1nn(-c2ccc(Oc3cc(CC4CCCC4)c(=O)[nH]n3)c(Br)c2)c(=O)[nH]c1=O [Compound 9]	5.32	6.19	< 4.30
N#Cc1nn(-c2ccc(Oc3cc(CC4CCCC4)c(=O)[nH]n3)cc2Cl)c(=O)[nH]c1=O [Compound 10]	–	5.82	< 4.30
CC(C)(C)Cc1cc(Oc2c(Cl)cc(-n3nc(C#N)c(=O)[nH]c3=O)cc2Cl)n[nH]c1=O [Compound 18]	5.68	7.51	< 4.30
CC(C)(C)Cc1cc(Oc2cc(Cl)c(-n3nc(C#N)c(=O)[nH]c3=O)cc2Cl)n[nH]c1=O [Compound 20]	–	5.34	< 4.30
COc1cc(-n2nc(C#N)c(=O)[nH]c2=O)ccc1Oc1cc(CC(C)(C)C)c(=O)[nH]n1 [Compound 21]	4.70	5.82	< 4.30
CC(C)c1cc(Oc2ccc(-n3nc(C#N)c(=O)[nH]c3=O)cc2F)n[nH]c1=O [Compound 25]	7.85	5.57	< 4.30
CC(C)c1cc(Oc2ccc(-n3nc(C#N)c(=O)[nH]c3=O)cc2Cl)n[nH]c1=O [Compound 26]	5.68	7.26	< 4.30
CC(C)c1cc(Oc2c(Br)cc(-n3nc(C#N)c(=O)[nH]c3=O)cc2Br)n[nH]c1=O [Compound 28]	7.42	6.99	< 4.30
CC(C)c1cc(Oc2cc(Cl)c(-n3nc(C#N)c(=O)[nH]c3=O)cc2Cl)n[nH]c1=O [Compound 29]	–	6.93	< 4.30
CC(C)c1cc(Oc2ccc(-n3nc(C#N)c(=O)[nH]c3=O)c(Cl)c2)n[nH]c1=O [Compound 30]	< 4.22	4.76	< 4.30
COc1cc(-n2nc(C#N)c(=O)[nH]c2=O)ccc1Oc1cc(C(C)C)c(=O)[nH]n1 [Compound 31]	5.29	7.20	< 4.30
N#Cc1nn(-c2ccc(Oc3cc(C4CCCC4)c(=O)[nH]n3)c(F)c2)c(=O)[nH]c1=O [Compound 32]	4.73	6.55	< 4.30
N#Cc1nn(-c2ccc(Oc3cc(C4CCCC4)c(=O)[nH]n3)cc2Cl)c(=O)[nH]c1=O [Compound 33]	–	5.12	< 4.30

Second part, led by results:

pEC50 (THRα)	pEC50 (THRβ)	SMILES	pIC50 (L929 mouse fibroblasts)
6.90	7.00	CC(C)(C)c1cc(Oc2c(Cl)cc(-n3nc(C#N)c(=O)[nH]c3=O)cc2Cl)n[nH]c1=O [Compound 1, 2-(4-((5-(tert-butyl)-6-oxo-1,6-dihydropyridazin-3-yl)oxy)-3,5-dichlorophenyl)-3,5-dioxo-2,3,4,5-tetrahydro-1,2,4-triazine-6-carbonitrile]	< 4.30
5.86	6.09	CC(C)(C)c1cc(Oc2ccc(-n3nc(C#N)c(=O)[nH]c3=O)cc2Cl)n[nH]c1=O [Compound 3]	< 4.30
5.21	7.49	N#Cc1nn(-c2ccc(Oc3cc(CC4CCCC4)c(=O)[nH]n3)c(Cl)c2)c(=O)[nH]c1=O [Compound 8]	< 4.30
5.67	6.43	N#Cc1nn(-c2cc(Cl)c(Oc3cc(CC4CCCC4)c(=O)[nH]n3)cc2Cl)c(=O)[nH]c1=O [Compound 11]	< 4.30
5.06	6.14	COc1cc(-n2nc(C#N)c(=O)[nH]c2=O)ccc1Oc1cc(CC2CCCC2)c(=O)[nH]n1 [Compound 12]	< 4.30
< 4.22	5.72	N#Cc1nn(-c2ccc(Oc3cc(CC4CCCC4)c(=O)[nH]n3)cc2)c(=O)[nH]c1=O [Compound 13]	< 4.30
5.47	7.60	CC(C)Cc1cc(Oc2c(Cl)cc(-n3nc(C#N)c(=O)[nH]c3=O)cc2Cl)n[nH]c1=O [Compound 14]	< 4.30
–	5.82	CC(C)Cc1cc(Oc2ccc(-n3nc(C#N)c(=O)[nH]c3=O)cc2Br)n[nH]c1=O [Compound 15]	< 4.30
4.93	7.18	CC(C)(C)Cc1cc(Oc2ccc(-n3nc(C#N)c(=O)[nH]c3=O)cc2Cl)n[nH]c1=O [Compound 19]	< 4.30
6.20	6.73	Cc1c(Oc2c(Cl)cc(-n3nc(C#N)c(=O)[nH]c3=O)cc2Cl)n[nH]c(=O)c1C [Compound 22]	< 4.30
5.34	6.11	Cc1c(Oc2ccc(-n3nc(C#N)c(=O)[nH]c3=O)cc2F)n[nH]c(=O)c1C [Compound 23]	< 4.30
5.59	7.51	CC(C)c1cc(Oc2ccc(-n3nc(C#N)c(=O)[nH]c3=O)cc2Br)n[nH]c1=O [Compound 27]	< 4.30
7.85	5.41	N#Cc1nn(-c2cc(Cl)c(Oc3cc(C4CCCC4)c(=O)[nH]n3)cc2Cl)c(=O)[nH]c1=O [Compound 34]	< 4.30
< 4.22	< 4.22	CC(C)c1cc(=O)[nH]nc1Oc1cc(Cl)c(-n2nc(C#N)c(=O)[nH]c2=O)cc1Cl [Compound 35]	< 4.30
–	< 4.22	CC(C)(C)Cc1cc(Oc2ccc(-n3cc(C#N)c(=O)[nH]c3=O)c(Cl)c2)n[nH]c1=O [Compound 45]	< 4.30
